Values quoted from earlier work in US20070093743A1, “Iontophoresis Drug Delivery Device Providing Acceptable Depth and Duration of Dermal Anesthesia” (Vyteris, Inc., priority 2005, published 2007).

Details: iontophoresis in vitro across human skin

SMILES | cumulative delivery compared with lidocaine
CCCN(CC)C(CC)C(=O)Nc1c(C)cccc1C (stereo not drawn) [etidocaine] | slightly greater delivery
CCCNC(C)C(=O)Nc1ccccc1C (stereo not drawn) [prilocaine] | slightly greater delivery
CCN(CC)CCOC(=O)c1ccc(N)cc1 [procaine] | slightly greater delivery
